According to patent publication US7674789B2, “Compounds” (Glaxo Group Limited, priority 2005, dated 2010):

System: influx of neutrophils to the lung in LPS-challenged rats
Assay: Rat LPS neutrophilia model
Type: in vivo
Details: intratracheal compound 15 min-24 hours before LPS aerosol (100 ug/ml, 15 min), lavage 4 hours later, in at least one of the range of conditions tested
Experimental: Rat LPS Neutrophilia Model
The effect of compounds on the influx of neutrophils to the lung in LPS-challenged rats is evaluated as follows. The test compound is suspended in one of the following solutions: 0.5% tween 80/PBS, 0.5% tween 80/saline, 10% EtOH/saline (with pH adjusted to 2.0, or 8.0 with HCl, or unadjusted), Saline @ pH 2.0, 6.5 or 8.0, 0.5% Tragacanth, 1% DMSO/20% Encapsin/Saline, or acidified 5% Tragacanth. The suspension process may be aided by the use of a glass homogenizer. For intratracheal administration, the animals are anesthetized with inhaled isoflurane and placed in a supine position, the trachea is intubated with a steel gavage needle (1.5 inch, 22 gauge, small ball) or a Penn-Century Microsprayer Aerosolizer (model IA-1B) and 200 ul of dosing solution is delivered. The animals are visually monitored during the recovery process, which typically occurs within two minutes.
Rats treated with compound or vehicle (15 min-24 hours pretreatment) are exposed to an LPS aerosol (100 ug/ml) for 15 min. Four hours later the rats are euthanized with pentobarbital (100 mg/kg, i.p.) and the airways are lavaged with 5 washes of 5 ml of phosphate buffered saline. The harvested cells are stained (Diffquick) and counted to determine total and differential cell data. In a typical study, macrophages represent 40-70% of the total cells, and polymorphonuclear cells 30-60% of the total cells. Inhibition of neutrophil levels relative to no compound controls is calculated based on the differential counts.
The assay has varying conditions, such as concentration, pretreat time, form of the compound (crystalline, amorphous, salts, micronised), and a wet or dry application of the compound. The data is obtained as % inhibition using a particular concentration and pretreat time.

| SMILES | inhibition of neutrophilia (neutrophil influx to the lung) |
| --- | --- |
| Cc1ccc(C(=O)Nc2ccc(C)c(-c3nc(NC4CC(C)(C)NC(C)(C)C4)nc4c3CNC(=O)N4c3c(F)cccc3F)c2)cc1F [23(e), N-(3-{8-(2,6-difluorophenyl)-7-oxo-2-[(2,2,6,6-tetramethyl-4-piperidinyl)amino]-5,6,7,8-tetrahydropyrimido[4,5-d]pyrimidin-4-yl}-4-methylphenyl)-3-fluoro-4-methylbenzamide] | statistically nonsignificant inhibition of neutrophilia |
| Cc1ccc(C(=O)Nc2ccc(C)c(-c3nc(N(C)C)nc4c3CNC(=O)N4c3c(F)cccc3F)c2)cc1F [Example 28, N-{3-[8-(2,6-difluorophenyl)-2-(dimethylamino)-7-oxo-5,6,7,8-tetrahydropyrimido[4,5-d]pyrimidin-4-yl]-4-methylphenyl}-3-fluoro-4-methylbenzamide] | statistically nonsignificant inhibition of neutrophilia |
| CCN(CC)CCCNc1nc(-c2cc(C(=O)Nc3nccs3)ccc2C)c2c(n1)N(c1c(F)cccc1F)C(=O)NC2 [Example 120, 3-[2-{[3-(diethylamino)propyl]amino}-8-(2,6-difluorophenyl)-7-oxo-5,6,7,8-tetrahydropyrimido[4,5-d]pyrimidin-4-yl]-4-methyl-N-1,3-thiazol-2-ylbenzamide] | statistically significant inhibition of neutrophilia |
| Cc1ccc(C(=O)NCc2ccccc2)cc1-c1nc(NCCCN(C)C)nc2c1CNC(=O)N2c1c(F)cccc1F [Example 151, 3-(8-(2,6-difluorophenyl)-2-{[3-(dimethylamino)propyl]amino}-7-oxo-5,6,7,8-tetrahydropyrimido[4,5-d]pyrimidin-4-yl)-4-methyl-N-(phenylmethyl)benzamide] | statistically nonsignificant inhibition of neutrophilia |
| COc1ccc(NC(=O)c2ccc(C)c(-c3nc(NCCN(C)C)nc4c3CNC(=O)N4c3c(F)cccc3F)c2)cn1 [Example 140, 3-(8-(2,6-difluorophenyl)-2-{[2-(dimethylamino)ethyl]amino}-7-oxo-5,6,7,8-tetrahydropyrimido[4,5-d]pyrimidin-4-yl)-4-methyl-N-[6-(methyloxy)-3-pyridinyl]benzamide] | statistically significant inhibition of neutrophilia |
| Cc1ccc(C(=O)Nc2nccs2)cc1-c1nc(N(C)CCCN(C)C)nc2c1CNC(=O)N2c1c(F)cccc1F [Example 124, 3-{8-(2,6-difluorophenyl)-2-[[3-(dimethylamino)propyl](methyl)amino]-7-oxo-5,6,7,8-tetrahydropyrimido[4,5-d]pyrimidin-4-yl}-4-methyl-N-1,3-thiazol-2-ylbenzamide] | statistically nonsignificant inhibition of neutrophilia |
| CN(C)CCNc1nc(-c2cccc(C(=O)Nc3nccs3)c2)c2c(n1)N(c1c(F)cccc1F)C(=O)NC2 [Example 92, 3-(8-(2,6-difluorophenyl)-2-{[2-(dimethylamino)ethyl]amino}-7-oxo-5,6,7,8-tetrahydropyrimido[4,5-d]pyrimidin-4-yl)-N-1,3-thiazol-2-ylbenzamide] | statistically significant inhibition of neutrophilia |
| CCCNC(=O)c1ccc(C)c(-c2nc(N(C)CCCN(C)C)nc3c2CNC(=O)N3c2c(F)cccc2F)c1 [Example 53, 3-{8-(2,6-difluorophenyl)-2-[[3-(dimethylamino)propyl](methyl)amino]-7-oxo-5,6,7,8-tetrahydropyrimido[4,5-d]pyrimidin-4-yl}-4-methyl-N-propylbenzamide] | statistically nonsignificant inhibition of neutrophilia |
| Cc1ccc(C(=O)Nc2nccs2)cc1-c1nc(NCCCN(C)C)nc2c1CNC(=O)N2c1c(F)cccc1F [Example 119, 3-(8-(2,6-difluorophenyl)-2-{[3-(dimethylamino)propyl]amino}-7-oxo-5,6,7,8-tetrahydropyrimido[4,5-d]pyrimidin-4-yl)-4-methyl-N-1,3-thiazol-2-ylbenzamide] | statistically significant inhibition of neutrophilia |
